According to ChEMBL document CHEMBL1201862, “PubChem BioAssay data set” (2004):
Active and inactive are the calls of the source.

Experiments:
HEK293 [1] = experiment: cells; type: functional, cell-based; settings: Homo sapiens
[2] = target: T1, Heat shock factor protein 1 (Mus musculus, UniProt P38532); experiment: inhibition of MG132-induced HSE-luciferase signal, confirmation, cell-based, NIH3T3, luminescence, dose retest (AID 2382); type: functional;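 further: NIH3T3 fibroblasts with HSF1-driven luciferase reporter stressed by proteasome inhibitor MG132; luminescence from HSF1-driven luciferase expression after 8 hours of MG132 stress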
T1 sequence (P38532 whole entry): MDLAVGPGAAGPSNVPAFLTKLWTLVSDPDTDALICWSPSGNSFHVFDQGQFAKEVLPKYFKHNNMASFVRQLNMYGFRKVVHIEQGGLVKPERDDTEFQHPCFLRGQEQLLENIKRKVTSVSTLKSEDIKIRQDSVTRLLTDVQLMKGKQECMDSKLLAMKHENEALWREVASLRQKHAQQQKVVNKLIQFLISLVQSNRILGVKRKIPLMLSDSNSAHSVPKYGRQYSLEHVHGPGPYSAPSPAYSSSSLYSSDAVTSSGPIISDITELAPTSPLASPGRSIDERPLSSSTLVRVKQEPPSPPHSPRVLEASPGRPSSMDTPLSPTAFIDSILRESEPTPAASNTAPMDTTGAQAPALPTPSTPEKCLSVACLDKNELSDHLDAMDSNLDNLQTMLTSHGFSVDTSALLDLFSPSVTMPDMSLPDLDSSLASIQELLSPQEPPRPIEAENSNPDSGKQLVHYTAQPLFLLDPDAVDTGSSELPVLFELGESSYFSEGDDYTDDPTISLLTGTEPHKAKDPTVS

HEK293 [3] = experiment: cells; type: functional, cell-based; settings: Homo sapiens; remark: listed apart in the source
[4] = target: Nucleotide-binding oligomerization domain-containing protein 2 (Homo sapiens, UniProt Q9HC29); experiment: NOD2 signaling inhibitors, cell-based, luminescence, uHTS, HEK293 (AID 1566); type: functional
Sequence of Nucleotide-binding oligomerization domain-containing protein 2 (Q9HC29 whole entry, the tested form may be a part): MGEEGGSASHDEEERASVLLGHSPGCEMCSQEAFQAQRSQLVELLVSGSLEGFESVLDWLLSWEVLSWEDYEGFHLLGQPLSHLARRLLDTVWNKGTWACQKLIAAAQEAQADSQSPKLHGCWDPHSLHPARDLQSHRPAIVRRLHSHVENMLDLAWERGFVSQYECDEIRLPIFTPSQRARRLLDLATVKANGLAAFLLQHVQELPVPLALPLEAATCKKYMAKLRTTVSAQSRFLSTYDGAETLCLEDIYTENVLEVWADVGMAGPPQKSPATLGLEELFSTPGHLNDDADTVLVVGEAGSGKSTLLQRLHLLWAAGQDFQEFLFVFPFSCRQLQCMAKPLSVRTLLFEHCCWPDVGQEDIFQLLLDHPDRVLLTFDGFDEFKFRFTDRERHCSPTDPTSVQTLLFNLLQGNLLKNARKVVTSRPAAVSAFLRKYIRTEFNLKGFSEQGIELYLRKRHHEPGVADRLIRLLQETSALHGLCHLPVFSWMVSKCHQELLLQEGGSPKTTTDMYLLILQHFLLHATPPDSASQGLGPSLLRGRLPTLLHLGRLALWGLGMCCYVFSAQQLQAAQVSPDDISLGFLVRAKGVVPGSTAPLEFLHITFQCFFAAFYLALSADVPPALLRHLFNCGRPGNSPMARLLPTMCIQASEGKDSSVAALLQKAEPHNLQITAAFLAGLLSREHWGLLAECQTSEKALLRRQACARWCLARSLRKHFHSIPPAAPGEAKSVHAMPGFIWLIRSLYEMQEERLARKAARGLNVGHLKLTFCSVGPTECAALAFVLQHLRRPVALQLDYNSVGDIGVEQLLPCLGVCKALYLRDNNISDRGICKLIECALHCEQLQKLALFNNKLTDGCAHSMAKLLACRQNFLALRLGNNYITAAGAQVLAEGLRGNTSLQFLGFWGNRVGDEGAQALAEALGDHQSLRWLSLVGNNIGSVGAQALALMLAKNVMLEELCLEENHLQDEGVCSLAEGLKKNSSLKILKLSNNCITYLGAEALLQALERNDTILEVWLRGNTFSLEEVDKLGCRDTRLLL

HEK293 [5] = experiment: NOD2 signaling inhibitors in MDP-stimulated cells, cell-based, uHTS, luminescence (AID 2001); type: functional; settings: Homo sapiens
HEK293 [6] = experiment: cells; type: functional, cell-based; settings: Homo sapiens; remark: listed apart in the source
INS1 = experiment: beta cell apoptosis inhibitors, cytokine rescue, dose response, luminescence, retest (AID 449756); type: functional, cell-based; settings: Rattus norvegicus;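 further: cell death triggered by IL-1 beta plus TNF-alpha plus IFN-gamma mixture; protective hits raise ATP signal compared with cytokine alone wells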
Hexokinase HKDC1 = target: T2, Hexokinase HKDC1 (Homo sapiens, UniProt Q2TB90); experiment: HKDC1 hexokinase activators, dose response, biochemical, W721R variant (AID 504730); type: functional
T2 sequence (Q2TB90 whole entry): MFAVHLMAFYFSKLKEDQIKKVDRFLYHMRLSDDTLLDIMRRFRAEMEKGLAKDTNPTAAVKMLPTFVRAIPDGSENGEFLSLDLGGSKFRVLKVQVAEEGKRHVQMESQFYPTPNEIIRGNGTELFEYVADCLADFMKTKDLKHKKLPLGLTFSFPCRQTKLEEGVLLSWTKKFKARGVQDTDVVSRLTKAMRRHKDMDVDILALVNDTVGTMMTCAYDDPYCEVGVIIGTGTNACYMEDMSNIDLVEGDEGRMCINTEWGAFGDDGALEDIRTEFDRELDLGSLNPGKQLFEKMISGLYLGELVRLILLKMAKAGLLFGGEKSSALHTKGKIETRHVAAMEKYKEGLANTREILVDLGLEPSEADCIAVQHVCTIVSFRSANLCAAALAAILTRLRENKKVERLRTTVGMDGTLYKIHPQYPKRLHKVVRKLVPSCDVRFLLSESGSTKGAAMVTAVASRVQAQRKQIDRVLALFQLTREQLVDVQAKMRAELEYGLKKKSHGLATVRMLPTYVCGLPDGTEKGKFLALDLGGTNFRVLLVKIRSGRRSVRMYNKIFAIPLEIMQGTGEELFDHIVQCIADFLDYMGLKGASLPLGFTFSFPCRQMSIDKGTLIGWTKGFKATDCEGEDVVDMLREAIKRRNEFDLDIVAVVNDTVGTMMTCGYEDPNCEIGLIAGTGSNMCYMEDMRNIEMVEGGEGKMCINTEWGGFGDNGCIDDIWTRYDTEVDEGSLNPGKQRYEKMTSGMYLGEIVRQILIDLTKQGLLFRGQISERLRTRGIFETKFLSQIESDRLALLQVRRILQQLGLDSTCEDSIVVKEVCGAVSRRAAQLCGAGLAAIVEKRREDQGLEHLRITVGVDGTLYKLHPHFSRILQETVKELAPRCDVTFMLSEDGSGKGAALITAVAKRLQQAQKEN

Hexokinase-1 = Hexokinase-1 (Homo sapiens, UniProt P19367); experiment: hexokinase 1 activators, dose response, selectivity assay for HKDC1 activator project, biochemical (AID 504762); type: functional
Sequence of Hexokinase-1 (P19367 whole entry): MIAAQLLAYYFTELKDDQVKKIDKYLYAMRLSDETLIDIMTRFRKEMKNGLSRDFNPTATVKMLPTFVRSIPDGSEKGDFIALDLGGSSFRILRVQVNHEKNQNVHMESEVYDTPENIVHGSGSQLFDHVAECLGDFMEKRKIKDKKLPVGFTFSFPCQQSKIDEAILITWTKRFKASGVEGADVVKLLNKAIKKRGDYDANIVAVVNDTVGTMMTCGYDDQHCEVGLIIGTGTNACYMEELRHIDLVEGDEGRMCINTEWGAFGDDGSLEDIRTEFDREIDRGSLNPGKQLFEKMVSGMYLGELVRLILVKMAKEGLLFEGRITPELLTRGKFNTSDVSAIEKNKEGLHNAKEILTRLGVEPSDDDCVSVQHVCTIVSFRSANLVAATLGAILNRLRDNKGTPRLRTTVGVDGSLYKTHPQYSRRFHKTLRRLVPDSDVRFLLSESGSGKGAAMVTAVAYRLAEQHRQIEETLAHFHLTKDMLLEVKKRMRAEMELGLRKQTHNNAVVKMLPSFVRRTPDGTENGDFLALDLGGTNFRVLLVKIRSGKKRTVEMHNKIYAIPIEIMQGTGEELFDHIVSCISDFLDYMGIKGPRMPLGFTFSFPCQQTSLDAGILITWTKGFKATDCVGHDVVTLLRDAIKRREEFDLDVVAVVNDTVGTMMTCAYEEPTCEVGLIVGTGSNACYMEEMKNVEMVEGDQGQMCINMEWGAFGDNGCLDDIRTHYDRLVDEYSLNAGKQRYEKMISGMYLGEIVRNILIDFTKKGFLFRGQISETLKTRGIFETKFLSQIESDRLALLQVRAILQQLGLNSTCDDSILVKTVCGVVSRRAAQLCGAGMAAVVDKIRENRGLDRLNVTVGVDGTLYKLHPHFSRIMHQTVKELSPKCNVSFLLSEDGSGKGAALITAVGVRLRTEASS

HEK293 [7] = experiment: NOD1 signaling inhibitors, primary screen, cell-based, luminescence, uHTS (AID 1578); type: functional; settings: Homo sapiens
[8] = inhibitors of firefly luciferase expression or activity, dose response, H4 neuroglioma cells, luminescence (AID 1990); type: functional, cell-based
[9] = inhibitors of SNCA 5'UTR-driven reporter translation, confirmation, H4 neuroglioma cells, luminescence (AID 1988); type: functional, cell-based
SUMO-activating enzyme = SUMO-activating enzyme (Homo sapiens, UniProt Q9UBT2); experiment: SUMOylation inhibitor hit validation, confirmation, SUMOylation inhibitor project, biochemical, AlphaScreen (AID 2018); type: functional
Sequence of SUMO-activating enzyme (Q9UBE0 whole entry): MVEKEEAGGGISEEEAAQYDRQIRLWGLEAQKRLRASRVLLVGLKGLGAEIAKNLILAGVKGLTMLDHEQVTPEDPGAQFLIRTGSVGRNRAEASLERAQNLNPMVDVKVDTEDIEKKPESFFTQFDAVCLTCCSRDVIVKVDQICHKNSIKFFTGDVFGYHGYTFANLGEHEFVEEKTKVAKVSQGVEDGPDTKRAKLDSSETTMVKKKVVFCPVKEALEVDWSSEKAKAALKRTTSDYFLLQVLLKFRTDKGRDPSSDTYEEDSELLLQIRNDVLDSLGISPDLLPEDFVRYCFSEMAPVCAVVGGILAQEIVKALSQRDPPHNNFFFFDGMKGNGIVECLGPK
Sequence of SUMO-activating enzyme (Q9UBT2 whole entry): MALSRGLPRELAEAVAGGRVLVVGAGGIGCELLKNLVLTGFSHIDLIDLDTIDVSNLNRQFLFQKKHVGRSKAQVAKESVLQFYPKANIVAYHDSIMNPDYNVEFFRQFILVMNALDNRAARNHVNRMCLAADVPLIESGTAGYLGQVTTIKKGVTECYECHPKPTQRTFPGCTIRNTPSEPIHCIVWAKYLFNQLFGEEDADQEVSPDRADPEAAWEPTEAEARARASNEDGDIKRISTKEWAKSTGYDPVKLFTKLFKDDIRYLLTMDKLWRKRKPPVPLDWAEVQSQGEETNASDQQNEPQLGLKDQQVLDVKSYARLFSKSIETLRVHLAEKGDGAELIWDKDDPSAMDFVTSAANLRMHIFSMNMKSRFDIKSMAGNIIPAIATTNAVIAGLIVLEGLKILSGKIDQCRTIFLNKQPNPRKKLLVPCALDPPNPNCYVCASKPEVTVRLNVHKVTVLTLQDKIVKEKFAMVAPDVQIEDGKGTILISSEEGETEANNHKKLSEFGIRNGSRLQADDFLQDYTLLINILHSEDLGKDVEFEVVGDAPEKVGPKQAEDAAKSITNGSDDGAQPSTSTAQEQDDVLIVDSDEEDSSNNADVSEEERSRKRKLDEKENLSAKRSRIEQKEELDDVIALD

[10] = Luminescence Cell-Based Dose Response HTS to Identify Inhibitors of 5'UTR Stem-Loop Driven Prion Protein mRNA Translation in H4 Neuroglioblastoma Cells. [Related pubchem assays: 1827 (Project Summary), 1813 (Primary HTS)]; type: functional
[11] = target: T3, Orexin/Hypocretin receptor type 1 (Homo sapiens, UniProt O43613); experiment: Homogeneous Time Resolved Fluorescence (HTRF)-based cell-based high throughput dose response assay for antagonists of the orexin 1 receptor (OX1R; HCRTR1). [Related pubchem assays (depositor defined):AID434989, AID435008, AID463079, AID485270, AID492963, AID492964, AID492965, AID493232, AID504717, AID504718]; type: functional
T3 sequence (O43613 whole entry): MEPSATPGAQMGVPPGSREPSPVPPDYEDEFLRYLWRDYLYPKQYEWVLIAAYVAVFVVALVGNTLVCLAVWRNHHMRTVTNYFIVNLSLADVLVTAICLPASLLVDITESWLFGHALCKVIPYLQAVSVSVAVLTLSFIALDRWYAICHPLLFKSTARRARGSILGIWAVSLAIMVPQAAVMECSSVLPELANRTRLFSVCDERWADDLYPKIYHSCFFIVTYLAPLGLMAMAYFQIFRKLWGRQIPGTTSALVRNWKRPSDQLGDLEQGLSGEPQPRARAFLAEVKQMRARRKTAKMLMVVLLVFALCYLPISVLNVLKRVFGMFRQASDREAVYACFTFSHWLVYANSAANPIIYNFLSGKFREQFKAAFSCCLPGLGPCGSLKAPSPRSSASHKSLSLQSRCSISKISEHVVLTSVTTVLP

[12] = (§1) Counterscreen for antagonists of the orexin 1 receptor (OX1R; HCRTR1): Fluorescence-based cell-based high throughput dose response assay to identify antagonists of the parental CHO cell line. [Related pubchem assays (depositor defined):AID434989, AID435008, AID463079, AID485270, AID492963, AID492964, AID492965, AID493232, AID504699, AID504701]; type: functional
[13] = target: T3, Orexin/Hypocretin receptor type 1; experiment: Fluorescence-based cell-based high throughput dose response assay for antagonists of the orexin 1 receptor (OX1R; HCRTR1). [Related pubchem assays (depositor defined):AID434989, AID435008, AID463079, AID485270, AID492963, AID492964, AID492965, AID493232, AID504717, AID504718]; type: functional
Orexin receptor type 2 [14] = target: T4, Orexin receptor type 2 (Homo sapiens, UniProt O43614); experiment: Counterscreen assay for antagonists of the orexin 1 receptor (OX1R; HCRTR1): Homogeneous Time Resolved Fluorescence (HTRF)-based cell-based dose response assay for antagonists of the orexin 2 receptor (OX2R; HCRTR2), run by assay provider.; type: functional
T4 sequence (O43614 whole entry): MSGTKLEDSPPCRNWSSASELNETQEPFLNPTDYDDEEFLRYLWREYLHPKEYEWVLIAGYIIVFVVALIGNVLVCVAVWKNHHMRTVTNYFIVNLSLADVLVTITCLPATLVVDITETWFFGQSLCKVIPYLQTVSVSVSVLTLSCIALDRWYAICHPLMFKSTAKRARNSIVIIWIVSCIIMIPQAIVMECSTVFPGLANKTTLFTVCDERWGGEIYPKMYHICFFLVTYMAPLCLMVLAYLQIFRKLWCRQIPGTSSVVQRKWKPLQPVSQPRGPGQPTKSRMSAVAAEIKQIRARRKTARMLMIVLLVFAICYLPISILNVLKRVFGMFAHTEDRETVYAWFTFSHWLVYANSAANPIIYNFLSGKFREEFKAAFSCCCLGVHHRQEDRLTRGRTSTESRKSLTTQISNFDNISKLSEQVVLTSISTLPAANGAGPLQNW

CHO-K1 = experiment: as §1, with “Homogeneous time resolved fluorescence (HTRF)-based” for “Fluorescence-based”, “cell-based” for “cell-based high throughput”, “CHO-K1” for “CHO”; type: functional; settings: Cricetulus griseus;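 further: potency for inhibition of ATP-stimulated IP1 production as antagonists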
Orexin receptor type 2 [15] = target: T4, Orexin receptor type 2; experiment: Counterscreen assay for antagonists of the orexin 1 receptor (OX1R; HCRTR1): Fluorescence-based cell-based dose response assay for antagonists of the orexin 2 receptor (OX2R; HCRTR2), run by assay provider.; type: functional

For `CCCOc1ccc(/C=N/NC(=S)Nc2ccccc2[N+](=O)[O-])c(O)c1`, the IC50 (HEK293 [1]) was 1.82 µM (active), the EC50 [2] was 11 µM (active) and the IC50 (HEK293 [3]) was > 20 µM (inactive). The EC50 [4] was 0.78 µM (active), the IC50 (HEK293 [5]) was 0.233 µM (active) and the IC50 (HEK293 [6]) was > 20 µM (inactive). The AC50 (INS1) was 1.28 µM (active), the EC50 (Hexokinase HKDC1) was 26.5 µM (inactive) and the EC50 (Hexokinase-1) was > 80 µM (inactive). For the same molecule, the EC50 (HEK293 [7]) was 11.9 µM (active).

In the case of `C=CCn1c(N)c(C(=O)Nc2ccccc2)c2nc3ccccc3nc21`, the EC50 [8] is reported as 22 µM (active), the EC50 [9] is reported as > 120 µM (not active) and the IC50 (SUMO-activating enzyme) is reported as 14.5 µM (active). For the same molecule, the EC50 [10] was > 120 µM (not active).

With `CNc1nc(Nc2ccc(C)c(Cl)c2)c2cnn(C)c2n1` the IC50 [11] was 2.07 µM (active), the IC50 [12] was > 49.8 µM (inactive) and the IC50 [13] was 14.4 µM (inactive). For the same molecule, the IC50 (Orexin receptor type 2 [14]) was > 50 µM (inactive), the IC50 (CHO-K1) was > 66.2 µM (inactive) and the IC50 (Orexin receptor type 2 [15]) was > 88.8 µM (inactive).
